Reference: patent publication US20240148745A1, “COMPOUNDS FOR USE IN PROGRESSIVE MULTIPLE SCLEROSIS” (FONDAZIONE CENTRO SAN RAFFAELE, priority 2021, published 2024)

Key:
S1R (Sigma 1 Receptor) = target: T1, S1R (Sigma 1 Receptor) (Rattus norvegicus, UniProt Q9R0C9); experiment: CETSA target engagement in CG-4 cell lysates; type: binding; conditions: 100 μM, 15 minutes, 52-77° C.
T1 construct: endogenous in cells; host or cells: CG-4 oligodendrocyte cell line (rat), lysate
Experimental: FIG. 32. […] Samples were heated at increasing temperatures (52-77° C.) and the soluble fractions were subjected to western blot. […] The immunoblot is representative of 4 biological replicates. Band quantification was performed by ImageJ software and the signal intensity of the thermostable protein was normalized to the respective intensity at 52° C. Protein amount at the other temperatures is represented as % of protein at 52° C. Data are means±the standard error of biological quadruplicates measurements and their statistical significance was evaluated by the Student's t-test (*** p<0.001; **p<0.01; *p<0.05).

mouse cortical neurons = experiment: Morphological integrity evaluation, NMDA 8 μM (MAP2 neurite length and branching); type: cell-based; conditions: 3 h pre-treatment, NMDA 8 μM 24 h; Z>0.5 criteria
Method in brief: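 Mouse cortical neurons (14 DIV) pre-treated 3 h with compounds, then exposed 24 h to 8 μM NMDA; fixed, MAP2 immunostained with DAPI. Total neurite length and non-trunk branch number from 15 images/well, triplicates, converted to plate-based Z-scores; NAC positive, staurosporine and NMDA negative controls.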

T1 sequence (Q9R0C9 whole entry): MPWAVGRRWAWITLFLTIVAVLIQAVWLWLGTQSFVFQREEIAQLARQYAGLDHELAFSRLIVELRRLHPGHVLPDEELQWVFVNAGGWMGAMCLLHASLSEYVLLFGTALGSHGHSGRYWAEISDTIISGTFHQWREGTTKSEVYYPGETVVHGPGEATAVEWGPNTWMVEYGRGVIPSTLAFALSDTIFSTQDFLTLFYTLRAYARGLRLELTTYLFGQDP

Compound | thermostability of S1R (CETSA, western blot) (S1R (Sigma 1 Receptor)) | preservation of neurite length and network integrity (branching) (mouse cortical neurons)
O=C(c1ccc(CN2CCOCC2)cc1)N1CCN(C2CC2)CC1 [Bavisant] | thermostability of S1R in the presence of Bavisant | –
NCCCC[C@H](NC(=O)[C@@H](Cc1cc(Br)c(O)c(Br)c1)NC(=O)N1CCC(N2Cc3ccccc3NC2=O)CC1)C(=O)N1CCN(c2ccncc2)CC1 [Olcegepant] | – | preserved both neurite length and the network integrity (branching)
